Experimental data: PubChem BioAssay AID248 (DTP/NCI, 2004)
Values joined by “and” are separate entries in the source; they are usually repeats but may differ in a detail not shown here. Equal entries are not always repeated. Inconclusive results and toxic doses are left out.

System: L1210 leukemia ip in BDF1 mice, survival T/C
Assay: NCI In Vivo Anticancer Drug Screen. Data for tumor model L1210 Leukemia (intraperitoneal) in B6D2F1 (BDF1) mice
Conditions: higher = longer survival
Summary of the method: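 Survival endpoint. Drug-treated group vs vehicle group, expressed as T divided by C. Tumor passaged by transplantation.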

[1] = endpoint: mean survival time, dose: 100.0 mg/kg/injection, schedule: Q04DX002 (ip), vehicle: Klucel (hydroxypropylcellulose) (HPC)
[2] = endpoint: mean survival time, dose: 200.0 mg/kg/injection, schedule: Q04DX002 (ip), vehicle: Klucel (hydroxypropylcellulose) (HPC)
[3] = endpoint: mean survival time, dose: 400.0 mg/kg/injection, schedule: Q04DX002 (ip), vehicle: Klucel (hydroxypropylcellulose) (HPC)

SMILES: CCC[CH2][Sn]([c]1ccccc1)([c]1ccccc1)[c]1ccccc1
- T/C (endpoint: mean survival time, dose: 25.6 mg/kg/injection, schedule: Q04DX002 (ip), vehicle: saline with Tween-80): 90 % of control
- T/C (endpoint: mean survival time, dose: 64.0 mg/kg/injection, schedule: Q04DX002 (ip), vehicle: saline with Tween-80): 90 % of control
- T/C (endpoint: mean survival time, dose: 100.0 mg/kg/injection, schedule: Q04DX003 (ip), vehicle: saline with Tween-80): 88 % of control
- T/C (endpoint: mean survival time, dose: 160.0 mg/kg/injection, schedule: Q04DX002 (ip), vehicle: saline with Tween-80): 93 % of control
- T/C (endpoint: mean survival time, dose: 200.0 mg/kg/injection, schedule: Q04DX003 (ip), vehicle: saline with Tween-80): 96 % of control
- T/C (endpoint: mean survival time, dose: 400.0 mg/kg/injection, schedule: Q04DX002 (ip), vehicle: saline with Tween-80): 97 % of control

SMILES: O=C(O)c1cc(Cl)cc(I)c1Br
- T/C (endpoint: mean survival time, dose: 75.0 mg/kg/injection, schedule: Q04DX002 (ip), vehicle: Klucel (hydroxypropylcellulose) (HPC)): 100 % of control
- T/C [1]: 94 % of control
- T/C (endpoint: mean survival time, dose: 150.0 mg/kg/injection, schedule: Q04DX002 (ip), vehicle: Klucel (hydroxypropylcellulose) (HPC)): 96 % of control
- T/C [2]: 105 % of control
- T/C (endpoint: mean survival time, dose: 300.0 mg/kg/injection, schedule: Q04DX002 (ip), vehicle: Klucel (hydroxypropylcellulose) (HPC)): 100 % of control
- T/C [3]: 105 % of control

SMILES: O=C(Nc1cc([N+](=O)[O-])cc([N+](=O)[O-])c1O)C(F)(F)F
- T/C (endpoint: mean survival time, dose: 25.0 mg/kg/injection, schedule: Q01DX001 (ip), vehicle: Klucel (hydroxypropylcellulose) (HPC)): 102 % of control
- T/C (endpoint: mean survival time, dose: 50.0 mg/kg/injection, schedule: Q01DX001 (ip), vehicle: Klucel (hydroxypropylcellulose) (HPC)): 96 % of control
- T/C (endpoint: mean survival time, dose: 100.0 mg/kg/injection, schedule: Q01DX001 (ip), vehicle: Klucel (hydroxypropylcellulose) (HPC)): 100 % of control and 120 % of control
- T/C (endpoint: mean survival time, dose: 200.0 mg/kg/injection, schedule: Q01DX001 (ip), vehicle: Klucel (hydroxypropylcellulose) (HPC)): 98 % of control

SMILES: N#CC1(N2CCC3(CC2)OCCO3)CCCCC1
- T/C (endpoint: mean survival time, dose: 12.5 mg/kg/injection, schedule: Q01DX009 (ip), vehicle: Klucel (hydroxypropylcellulose) (HPC)): 101 % of control
- T/C (endpoint: mean survival time, dose: 12.5 mg/kg/injection, schedule: Q04DX003 (ip), vehicle: Klucel (hydroxypropylcellulose) (HPC)): 91 % of control
- T/C (endpoint: mean survival time, dose: 25.0 mg/kg/injection, schedule: Q01DX009 (ip), vehicle: Klucel (hydroxypropylcellulose) (HPC)): 95 % of control
- T/C (endpoint: mean survival time, dose: 25.0 mg/kg/injection, schedule: Q04DX002 (ip), vehicle: Klucel (hydroxypropylcellulose) (HPC)): 107 % of control
- T/C (endpoint: mean survival time, dose: 25.0 mg/kg/injection, schedule: Q04DX003 (ip), vehicle: Klucel (hydroxypropylcellulose) (HPC)): 100 % of control
- T/C (endpoint: mean survival time, dose: 50.0 mg/kg/injection, schedule: Q04DX002 (ip), vehicle: Klucel (hydroxypropylcellulose) (HPC)): 96 % of control
- T/C [1]: 95 % of control

SMILES: CN1C(=O)c2ccccc2/C=C\c2ccccc21
- T/C [1]: 103 % of control
- T/C [2]: 92 % of control
- T/C [3]: 87 % of control

SMILES: CCCC[P+](CC(C)(C)c1ccc(C)cc1)(c1ccccc1)c1ccccc1
- T/C (endpoint: mean survival time, dose: 1.56 mg/kg/injection, schedule: Q04DX002 (ip), vehicle: saline): 96 % of control
- T/C (endpoint: mean survival time, dose: 3.13 mg/kg/injection, schedule: Q04DX002 (ip), vehicle: saline): 104 % of control
- T/C (endpoint: mean survival time, dose: 6.25 mg/kg/injection, schedule: Q04DX002 (ip), vehicle: saline): 100 % of control
- T/C (endpoint: mean survival time, dose: 12.5 mg/kg/injection, schedule: Q04DX002 (ip), vehicle: saline): 96 % of control
- T/C (endpoint: mean survival time, dose: 100.0 mg/kg/injection, schedule: Q04DX002 (ip), vehicle: saline with Tween-80): 103 % of control

SMILES: Cn1cnc([N+](=O)[O-])c1Sc1nc(N)nc2nc[nH]c12
- T/C (endpoint: mean survival time, dose: 0.16 mg/kg/injection, schedule: Q#A X030 (oral), vehicle: saline): 110 % of control
- T/C (endpoint: mean survival time, dose: 0.31 mg/kg/injection, schedule: Q#A X030 (oral), vehicle: saline): 106 % of control
- T/C (endpoint: mean survival time, dose: 0.62 mg/kg/injection, schedule: Q#A X030 (oral), vehicle: saline): 108 % of control
- T/C (endpoint: mean survival time, dose: 0.9 mg/kg/injection, schedule: Q03DX005 (oral), vehicle: saline): 101 % of control
- T/C (endpoint: mean survival time, dose: 1.2 mg/kg/injection, schedule: Q01DX006 (iv), vehicle: saline): 105 % of control
- T/C (endpoint: mean survival time, dose: 1.2 mg/kg/injection, schedule: Q01DX Z (im), vehicle: saline): 105 % of control
- T/C (endpoint: mean survival time, dose: 1.2 mg/kg/injection, schedule: Q01DX Z (ip), vehicle: saline): 168 % of control
- T/C (endpoint: mean survival time, dose: 1.2 mg/kg/injection, schedule: Q01DX Z (sc), vehicle: saline): 166 % of control
- T/C (endpoint: mean survival time, dose: 1.25 mg/kg/injection, schedule: Q01DX010 (ip), vehicle: saline): 112 % of control and 120 % of control
- T/C (endpoint: mean survival time, dose: 1.25 mg/kg/injection, schedule: Q#A X030 (oral), vehicle: saline): 113 % of control
- T/C (endpoint: mean survival time, dose: 1.6 mg/kg/injection, schedule: Q01DX001 (oral), vehicle: saline): 110 % of control
- T/C (endpoint: mean survival time, dose: 1.9 mg/kg/injection, schedule: Q03DX005 (oral), vehicle: saline): 106 % of control
- T/C (endpoint: mean survival time, dose: 2.1 mg/kg/injection, schedule: Q07DX003 (oral), vehicle: saline): 102 % of control
- T/C (endpoint: mean survival time, dose: 2.5 mg/kg/injection, schedule: Q01DX006 (iv), vehicle: saline): 109 % of control
- T/C (endpoint: mean survival time, dose: 2.5 mg/kg/injection, schedule: Q01DX009 (ip), vehicle: saline): 151 % of control and 159 % of control
- T/C (endpoint: mean survival time, dose: 2.5 mg/kg/injection, schedule: Q01DX010 (ip), vehicle: saline): 154 % of control and 155 % of control
- T/C (endpoint: mean survival time, dose: 2.5 mg/kg/injection, schedule: Q01DX Z (im), vehicle: saline): 100 % of control
- T/C (endpoint: mean survival time, dose: 2.5 mg/kg/injection, schedule: Q01DX Z (ip), vehicle: saline): 150 % of control
- T/C (endpoint: mean survival time, dose: 3.13 mg/kg/injection, schedule: Q01DX001 (oral), vehicle: saline): 104 % of control and 108 % of control
- T/C (endpoint: mean survival time, dose: 3.8 mg/kg/injection, schedule: Q03DX005 (oral), vehicle: saline): 104 % of control
- T/C (endpoint: mean survival time, dose: 4.3 mg/kg/injection, schedule: Q07DX003 (oral), vehicle: saline): 106 % of control
- T/C (endpoint: mean survival time, dose: 5.0 mg/kg/injection, schedule: Q01DX009 (ip), vehicle: saline): 156 % of control
- T/C (endpoint: mean survival time, dose: 5.0 mg/kg/injection, schedule: Q01DX010 (ip), vehicle: saline): 161 % of control and 163 % of control
- T/C (endpoint: mean survival time, dose: 5.0 mg/kg/injection, schedule: Q01DX Z (ip), vehicle: saline): 166 % of control
- T/C (endpoint: mean survival time, dose: 5.0 mg/kg/injection, schedule: Q01DX Z (oral), vehicle: saline): 116 % of control
- T/C (endpoint: mean survival time, dose: 5.0 mg/kg/injection, schedule: Q01DX Z (sc), vehicle: saline): 209 % of control
- T/C (endpoint: mean survival time, dose: 6.0 mg/kg/injection, schedule: Q01DX001 (ip), vehicle: saline): 109 % of control and 113 % of control
- T/C (endpoint: mean survival time, dose: 6.25 mg/kg/injection, schedule: Q01DX001 (oral), vehicle: saline): 102 % of control
- T/C (endpoint: mean survival time, dose: 7.5 mg/kg/injection, schedule: Q03DX005 (oral), vehicle: saline): 112 % of control
- T/C (endpoint: mean survival time, dose: 8.7 mg/kg/injection, schedule: Q07DX003 (oral), vehicle: saline): 113 % of control
- T/C (endpoint: mean survival time, dose: 10.0 mg/kg/injection, schedule: Q01DX010 (ip), vehicle: saline): 152 % of control
- T/C (endpoint: mean survival time, dose: 10.0 mg/kg/injection, schedule: Q01DX Z (oral), vehicle: saline): 123 % of control
- T/C (endpoint: mean survival time, dose: 12.5 mg/kg/injection, schedule: Q01DX001 (oral), vehicle: saline): 110 % of control
- T/C (endpoint: mean survival time, dose: 17.5 mg/kg/injection, schedule: Q07DX003 (oral), vehicle: saline): 122 % of control
- T/C (endpoint: mean survival time, dose: 20.0 mg/kg/injection, schedule: Q01DX006 (iv), vehicle: saline): 153 % of control
- T/C (endpoint: mean survival time, dose: 20.0 mg/kg/injection, schedule: Q01DX009 (ip), vehicle: saline): 114 % of control and 120 % of control
- T/C (endpoint: mean survival time, dose: 22.0 mg/kg/injection, schedule: Q01DX001 (ip), vehicle: carboxymethylcellulose (CMC)): 166 % of control
- T/C (endpoint: mean survival time, dose: 25.0 mg/kg/injection, schedule: Q01DX001 (ip), vehicle: saline): 116 % of control and 239 % of control
- T/C (endpoint: mean survival time, dose: 35.0 mg/kg/injection, schedule: Q01DX001 (ip), vehicle: carboxymethylcellulose (CMC)): 174 % of control
- T/C (endpoint: mean survival time, dose: 40.0 mg/kg/injection, schedule: Q01DX Z (oral), vehicle: saline): 174 % of control
- T/C (endpoint: mean survival time, dose: 52.0 mg/kg/injection, schedule: Q01DX001 (ip), vehicle: carboxymethylcellulose (CMC)): 180 % of control
- T/C (endpoint: mean survival time, dose: 78.0 mg/kg/injection, schedule: Q01DX001 (ip), vehicle: carboxymethylcellulose (CMC)): 196 % of control
- T/C (endpoint: mean survival time, dose: 80.0 mg/kg/injection, schedule: Q01DX Z (oral), vehicle: saline): 163 % of control
- T/C (endpoint: mean survival time, dose: 100.0 mg/kg/injection, schedule: Q01DX001 (ip), vehicle: saline): 200 % of control and 254 % of control
- T/C (endpoint: mean survival time, dose: 160.0 mg/kg/injection, schedule: Q01DX Z (im), vehicle: saline): 96 % of control
- T/C (endpoint: mean survival time, dose: 160.0 mg/kg/injection, schedule: Q01DX Z (oral), vehicle: saline): 111 % of control
- T/C (endpoint: mean survival time, dose: 320.0 mg/kg/injection, schedule: Q01DX Z (oral), vehicle: saline): 91 % of control
- T/C (endpoint: mean survival time, dose: 640.0 mg/kg/injection, schedule: Q01DX Z (oral), vehicle: saline): 86 % of control
- T/C (endpoint: mean survival time, dose: 960.0 mg/kg/injection, schedule: Q03DX005 (oral), vehicle: saline): 106 % of control
- T/C (endpoint: mean survival time, dose: 1920.0 mg/kg/injection, schedule: Q03DX005 (oral), vehicle: saline): 100 % of control
- T/C (endpoint: median survival time, dose: 2.5 mg/kg/injection, schedule: Q01DX009 (ip), vehicle: saline): 150 % of control
- T/C (endpoint: median survival time, dose: 10.0 mg/kg/injection, schedule: Q01DX009 (ip), vehicle: saline): 115 % of control
- T/C (endpoint: median survival time, dose: 20.0 mg/kg/injection, schedule: Q01DX009 (ip), vehicle: saline): 100 % of control and 118 % of control
